Data reported in PubChem BioAssay AID2060890 (Molecular Pharmacology Branch, DTP, NCI, 2025).

System: LG0703-F948-PDC complex spheroid viability
Test: Anticancer human tumor LG0703-F948-PDC patient-derived lung adenocarcinoma cell line growth inhibition [RAS]
Details: for IC50: curve of first compound; for viability, T/C: stronger effect = lower value
Outline: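 Agents were tested in combination matrices in half-log decrements from a top concentration at or near clinical Cmax (10 microM if undetermined). Targets were multi-cell spheroids of tumour lines plus HUVEC and MSC stromal cells.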

[1] = second compound 0.00316 µM, first compound 0.00316 µM
[2] = second compound 0.00316 µM, first compound 0.01 µM
[3] = second compound 0.00316 µM, first compound 0.0316 µM
[4] = second compound 0.00316 µM, first compound 0.1 µM
[5] = second compound 0.01 µM, first compound 0.00316 µM
[6] = second compound 0.01 µM, first compound 0.01 µM
[7] = second compound 0.01 µM, first compound 0.0316 µM
[8] = second compound 0.01 µM, first compound 0.1 µM
[9] = second compound 0.0316 µM, first compound 0.00316 µM
[10] = second compound 0.0316 µM, first compound 0.01 µM
[11] = second compound 0.0316 µM, first compound 0.0316 µM
[12] = second compound 0.0316 µM, first compound 0.1 µM
[13] = second compound 0.1 µM, first compound 0.00316 µM
[14] = second compound 0.1 µM, first compound 0.01 µM
[15] = second compound 0.1 µM, first compound 0.0316 µM
[16] = second compound 0.1 µM, first compound 0.1 µM
[17] = second compound 0.316 µM, first compound 0.00316 µM
[18] = second compound 0.316 µM, first compound 0.01 µM
[19] = second compound 0.316 µM, first compound 0.0316 µM
[20] = second compound 0.316 µM, first compound 0.1 µM
[21] = second compound 1 µM, first compound 0.00316 µM
[22] = second compound 1 µM, first compound 0.01 µM
[23] = second compound 1 µM, first compound 0.0316 µM
[24] = second compound 1 µM, first compound 0.1 µM
[25] = second compound 0.00316 µM, first compound 0.316 µM
[26] = second compound 0.00316 µM, first compound 1 µM
[27] = second compound 0.01 µM, first compound 0.316 µM
[28] = second compound 0.01 µM, first compound 1 µM
[29] = second compound 0.0316 µM, first compound 0.316 µM
[30] = second compound 0.0316 µM, first compound 1 µM
[31] = second compound 0.1 µM, first compound 0.316 µM
[32] = second compound 0.1 µM, first compound 1 µM
[33] = second compound 0.316 µM, first compound 0.316 µM
[34] = second compound 0.316 µM, first compound 1 µM
[35] = second compound 1 µM, first compound 0.316 µM
[36] = second compound 1 µM, first compound 1 µM
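Note: spheroids exposed to agents for 7 days.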
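Throughout, for viability, T/C: 100% = DMSO vehicle wells.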

With CC(C)n1nc(-c2ccc3oc(N)nc3c2)c2c(N)ncnc21 + C=CC(=O)N1CCN(c2nc(OCC3CCCN3C)nc3c(F)c(-c4nc(N)cc(C)c4C(F)(F)F)c(Cl)cc23)C(C)C1 the IC50 (second compound 0.00316 µM) was 2.63 nM, the IC50 (second compound 0.01 µM) was 4.04 nM and the IC50 (second compound 0.0316 µM) was 3.57 nM. It also gave an IC50 (second compound 0.1 µM) of 3.98 nM, an IC50 (second compound 0.316 µM) of 4.22 nM and an IC50 (second compound 1 µM) of 4.58 nM. The viability, T/C (second compound 0.00316 µM, first compound 0.000316 µM) was 90.6%, the viability, T/C (second compound 0.00316 µM, first compound 0.001 µM) was 65.3% and the viability, T/C [1] was 49.1%. The viability, T/C [2] was 29.7%, the viability, T/C [3] was 12.6% and the viability, T/C [4] was 7.5%. The viability, T/C (second compound 0.01 µM, first compound 0.000316 µM) was 92.8%, the viability, T/C (second compound 0.01 µM, first compound 0.001 µM) was 79.9% and the viability, T/C [5] was 55.6%. The viability, T/C [6] was 29.7%, the viability, T/C [7] was 12.3% and the viability, T/C [8] was 7.9%. It also gave a viability, T/C (second compound 0.0316 µM, first compound 0.000316 µM) of 94.8%, a viability, T/C (second compound 0.0316 µM, first compound 0.001 µM) of 76% and a viability, T/C [9] of 52.3%. For the same compound, the viability, T/C [10] was 30.9%, the viability, T/C [11] was 12.8% and the viability, T/C [12] was 6.67%. For the same compound, the viability, T/C (second compound 0.1 µM, first compound 0.000316 µM) was 106%, the viability, T/C (second compound 0.1 µM, first compound 0.001 µM) was 78.3% and the viability, T/C [13] was 57.6%. It also gave a viability, T/C [14] of 31.4%, a viability, T/C [15] of 14.3% and a viability, T/C [16] of 8.14%. For the same compound, the viability, T/C (second compound 0.316 µM, first compound 0.000316 µM) was 103%, the viability, T/C (second compound 0.316 µM, first compound 0.001 µM) was 79.3% and the viability, T/C [17] was 59%. The viability, T/C [18] was 31.5%, the viability, T/C [19] was 12.9% and the viability, T/C [20] was 7.55%. For the same compound, the viability, T/C (second compound 1 µM, first compound 0.000316 µM) was 114%, the viability, T/C (second compound 1 µM, first compound 0.001 µM) was 84.8% and the viability, T/C [21] was 59.2%. It also gave a viability, T/C [22] of 34.3%, a viability, T/C [23] of 13.9% and a viability, T/C [24] of 6.36%.

Compound CC(Nc1ccc2c(c1)OCCn1cc(N3C(=O)OCC3C(F)F)nc1-2)C(N)=O (stereo unspecified) + C=CC(=O)N1CCN(c2nc(OCC3CCCN3C)nc3c(F)c(-c4nc(N)cc(C)c4C(F)(F)F)c(Cl)cc23)C(C)C1 has an IC50 (second compound 0.00316 µM) of 1150 nM, an IC50 (second compound 0.01 µM) of 882 nM and an IC50 (second compound 0.0316 µM) of 987 nM. It also gave an IC50 (second compound 0.1 µM) of 967 nM, an IC50 (second compound 0.316 µM) of 962 nM and an IC50 (second compound 1 µM) of 1190 nM. For the same compound, the viability, T/C [3] was 91.8%, the viability, T/C [4] was 84.8% and the viability, T/C [25] was 64.5%. For the same compound, the viability, T/C [26] was 53.5%, the viability, T/C (second compound 0.00316 µM, first compound 3.16 µM) was 34.7% and the viability, T/C (second compound 0.00316 µM, first compound 10 µM) was 14.8%. The viability, T/C [7] was 99.9%, the viability, T/C [8] was 83.3% and the viability, T/C [27] was 62.2%. For the same compound, the viability, T/C [28] was 49.5%, the viability, T/C (second compound 0.01 µM, first compound 3.16 µM) was 32.9% and the viability, T/C (second compound 0.01 µM, first compound 10 µM) was 14.2%. It also gave a viability, T/C [11] of 98.9%, a viability, T/C [12] of 86.7% and a viability, T/C [29] of 66.9%. For the same compound, the viability, T/C [30] was 47.4%, the viability, T/C (second compound 0.0316 µM, first compound 3.16 µM) was 34.6% and the viability, T/C (second compound 0.0316 µM, first compound 10 µM) was 13.5%. It also gave a viability, T/C [15] of 105%, a viability, T/C [16] of 86.3% and a viability, T/C [31] of 63.9%. The viability, T/C [32] was 50.9%, the viability, T/C (second compound 0.1 µM, first compound 3.16 µM) was 35.2% and the viability, T/C (second compound 0.1 µM, first compound 10 µM) was 12.9%. For the same compound, the viability, T/C [19] was 113%, the viability, T/C [20] was 86.6% and the viability, T/C [33] was 68%. It also gave a viability, T/C [34] of 44.3%, a viability, T/C (second compound 0.316 µM, first compound 3.16 µM) of 34.4% and a viability, T/C (second compound 0.316 µM, first compound 10 µM) of 14.8%. For the same compound, the viability, T/C [23] was 108%, the viability, T/C [24] was 96.5% and the viability, T/C [35] was 69.2%. For the same compound, the viability, T/C [36] was 53.5%, the viability, T/C (second compound 1 µM, first compound 3.16 µM) was 36% and the viability, T/C (second compound 1 µM, first compound 10 µM) was 11.7%.

O=C(c1ccc(F)c(F)c1Nc1ccc(I)cc1F)N1CC(O)([C@@H]2CCCCN2)C1 + C=CC(=O)N1CCN(c2nc(OCC3CCCN3C)nc3c(F)c(-c4nc(N)cc(C)c4C(F)(F)F)c(Cl)cc23)C(C)C1 was tested, and the IC50 (second compound 0.00316 µM) was 27.1 nM, the IC50 (second compound 0.01 µM) was 34 nM and the IC50 (second compound 0.0316 µM) was 35.6 nM. It also gave an IC50 (second compound 0.1 µM) of 31.7 nM, an IC50 (second compound 0.316 µM) of 36.3 nM and an IC50 (second compound 1 µM) of 46 nM. For the same compound, the viability, T/C [1] was 92.1%, the viability, T/C [2] was 69.6% and the viability, T/C [3] was 47.3%. The viability, T/C [4] was 30.2%, the viability, T/C [25] was 19.5% and the viability, T/C [26] was 16.7%. It also gave a viability, T/C [5] of 92.6%, a viability, T/C [6] of 79.5% and a viability, T/C [7] of 51.3%. The viability, T/C [8] was 26.8%, the viability, T/C [27] was 16.8% and the viability, T/C [28] was 13.2%. For the same compound, the viability, T/C [9] was 94.2%, the viability, T/C [10] was 81.2% and the viability, T/C [11] was 52.3%. For the same compound, the viability, T/C [12] was 27.7%, the viability, T/C [29] was 17.6% and the viability, T/C [30] was 14.2%. For the same compound, the viability, T/C [13] was 89.7%, the viability, T/C [14] was 74.1% and the viability, T/C [15] was 50.6%. The viability, T/C [16] was 27.9%, the viability, T/C [31] was 18.9% and the viability, T/C [32] was 13.8%. It also gave a viability, T/C [17] of 90.8%, a viability, T/C [18] of 82.5% and a viability, T/C [19] of 52.8%. For the same compound, the viability, T/C [20] was 27%, the viability, T/C [33] was 19.7% and the viability, T/C [34] was 17.5%. For the same compound, the viability, T/C [21] was 99.8%, the viability, T/C [22] was 92.7% and the viability, T/C [23] was 58.4%. The viability, T/C [24] was 30.9%, the viability, T/C [35] was 23.6% and the viability, T/C [36] was 18%.
